Data published in PubChem BioAssay AID652041 (Broad Institute, 2013).
Active and inactive are the calls of the source.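 The calls were made as follows: active = fitted curve reaching a 35% signal drop at a concentration under 10 µM, within twice the top tested dose; inconclusive = no clear call, values can overlap the other calls; inactive = the rest, including activity opposite to the expected direction.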

Legend:
[1] = antimalarial activity against intraerythrocytic HB3 parasites – HB3 strain, red blood cells, SYBR Green, cherry-picked, dose response (AID 652041);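 also: parasites exposed to compound for 72 hours before the DNA read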; settings: P. falciparum HB3 in RBCs, SYBR Green DNA fluorescence; at 50 µM (top of the series)
[2] = test system: P. falciparum HB3 in RBCs, SYBR Green DNA fluorescence; assay: as above

| SMILES | activity change, negative = inhibition [1] | AC35 [2] |
| --- | --- | --- |
| CC1(C)CC(=O)C(N=Nc2ccc3ncsc3c2)=C(O)C1 | -23.1% (inactive) |  |
| O=C1OCC(CO)(CO)N=C1NNc1ccc(Cl)c(Cl)c1 |  | 19.7 µM |
| CC(C)C(=O)NC(c1ccco1)c1ccc2cccnc2c1O (configuration not stated) |  | 1.77 µM |
| CCOC(=O)c1ccc(NC(=S)N(Cc2cccnc2)Cc2ccco2)cc1 |  | 28.1 µM |
| O=C(NOC(=O)c1ccccc1)c1ccccc1 |  | 20.1 µM |
| C[C@@]12CCC3[C@@](CCC4[C@@]3(C)CCC[C@@]4(C)C(=O)NCc3ccccc3)(CC1=O)C2 (some centres not stated) |  | 21.7 µM |
| CC1(C)C=Cc2c(ccc3c2OC[C@@H](c2ccc(O)cc2O)C3)O1 |  | 13.8 µM |
| Cc1ccc(O)c(-c2cc(-c3ccccc3C)[nH]n2)c1 |  | 6.3 µM |
| O=C(Nc1nnc(-c2ccccc2)o1)c1ccc(Cl)cc1 |  | 10.7 µM |
| O=c1c(O)c(-c2ccccc2)oc2ccccc12 |  | 21.6 µM |
| COc1ccc(N(C)S(=O)(=O)c2ccc(Cl)c(C(=O)NNC(=O)c3ccccc3O)c2)cc1 |  | 35.8 µM |
| CC(C)(C)C(=O)C(Oc1ccc(Cl)cc1)n1cncn1 (configuration not stated) |  | 36.1 µM |
| COc1ccc2[nH]c(=O)c(CN(Cc3cccnc3)C(=O)Nc3ccccc3)cc2c1 |  | 15.7 µM |
| CCC1=NN(C(=O)c2cccc(Br)c2)C(O)(c2ccc(Br)cc2)C1 (configuration not stated) |  | 12.3 µM |
| C=C(C)COc1ccc(-c2[nH]ncc2-c2ccccc2)c(O)c1 |  | 1.89 µM |
| O=CC1=C(c2ccccc2)Oc2ccccc2O1 |  | 7.46 µM |
| COc1ccc(O)c(C(=O)CC(=O)c2ccccc2C)c1 |  | 13.9 µM |
| Cc1cc(-c2ccccc2)n(-c2cc(N/N=C/c3ccccc3O)ncn2)n1 |  | 3.85 µM |
| COC(=O)C1=NN(C(=O)c2cccc(Br)c2)C(O)(c2ccc(Cl)cc2)C1 (configuration not stated) |  | 31 µM |
| Cc1ccc(Cl)cc1NC1=C/C(=N\S(=O)(=O)c2cccs2)c2ccccc2C1=O |  | 0.119 µM |
| O=S(=O)(c1ccc(Cl)cc1)N1CCC2(CC1)OCCN2S(=O)(=O)c1cccs1 |  | 20 µM |
| O=C(Nc1nnc(SCc2ccc(F)cc2)s1)c1ccccn1 |  | 1.93 µM |
| Oc1ccc(N=Nc2ccc3c(c2)OCCO3)c2cccnc12 |  | 0.854 µM |
| Cc1ccc(-c2c3c(nc4sc(C(N)=O)c(N)c24)CCCC3)o1 |  | 37.6 µM |
| CN(C)c1ccc(C=c2c3cc(O)ccc3n3c2cc(-c2ccccc2)[n+]3C)cc1 |  | 0.247 µM |
| CCCCC(CC)c1nnc(NC(=O)c2cccs2)s1 (configuration not stated) |  | 37.3 µM |

| SMILES | activity change, negative = inhibition [1] | AC35 [2] |
| --- | --- | --- |
| CCCn1nc(C(=O)N2CCN(S(=O)(=O)c3ccc(C)c(C)c3)CC2)c2ccccc2c1=O |  | 8.13 µM |
| CCCCCCSc1ccc(-c2nc3ccccn3c2NCCCC)cc1 |  | 6.94 µM |
| COC(=O)c1cccc2c1-c1ccccc1/C2=N/O |  | 16.5 µM |
| Cc1csc(NC(=O)C(C)Oc2ccc(Cl)cc2C)n1 (configuration not stated) |  | 23 µM |
| Cc1cccc(Oc2nc(-c3ccccn3)nc3ccccc23)c1 |  | 6.06 µM |
| Cc1cc(/C=C2\SC(=S)N(C)C2=O)c(C)n1-c1ccc(O)cc1 |  | 9.39 µM |
| O=C(c1ccccc1)c1coc2c1C(=O)c1ccccc1C2=O |  | 1.49 µM |
| Cc1c(Cc2ccccc2)c(NCCN(C)C)n2c(nc3ccccc32)c1C#N |  | 6.66 µM |
| Cc1ccc(S(=O)(=O)Nc2ccc(O)c3cccnc23)cc1 |  | 6.27 µM |
| CCOC(=O)N1C(=O)C2(CCCCC2)N(c2ccccc2Cl)C1=S |  | 30.5 µM |
| NC(=O)N=Nc1c2[nH]c3ccccc3nc-2c2ccccc12 |  | 21.1 µM |
| O=C(Oc1c(Cl)cc(Cl)c2cccnc12)c1cccs1 |  | 19 µM |
| O=C(Nc1ccc(Br)c(C(F)(F)F)c1)c1ccccc1 |  | 10.7 µM |
| O=C(NCc1ccncc1)c1ccccc1Nc1ccc(SC(F)F)cc1 |  | 21.5 µM |
| c1ccc(CSc2ccc(-c3ccccn3)nn2)nc1 |  | 23 µM |
| Oc1c(Br)cc(-c2ccccc2)cc1Br | -16% (inactive) |  |
| c1ccc(Cn2cc(-c3cccnc3)cn2)cc1 | -23.9% (inactive) |  |
| Cc1ccc(O)c(C2=NNC(c3ccc(Cl)cc3)C2)c1 (configuration not stated) |  | 3.59 µM |
| CCOC(=O)c1cnc(-n2nc(C)cc2C)nc1NC1CCCC1 |  | 4.23 µM |
| Cc1[nH]n(-c2ccccc2)c(=O)c1/C=N/Nc1nncc(-c2ccccc2)n1 |  | 1.97 µM |
| O=S1OC(c2ccccc2)c2cc(Cl)ccc21 (configuration not stated) |  | 16.8 µM |
| CC(=O)Nc1cccc(NC(=O)CSc2ccc(-c3ccccn3)nn2)c1 |  | 17 µM |
| O=C(Nc1nnc(-c2cccs2)o1)c1cccc(Oc2ccccc2)c1 |  | 19.4 µM |
| CC(C)=CCc1c(O)ccc(C(=O)Cc2ccccc2)c1O |  | 11 µM |
| Nc1nc(-c2ccccc2)c(-c2ccc([N+](=O)[O-])cc2)s1 |  | 39.6 µM |
| COc1cccc(/C=N/NC(=O)c2nc(-c3ccccc3)cc(-c3ccccc3)n2)c1O |  | 7.16 µM |
